Series [1] deals with Liver microsome. Nature of the series: Intrinsic clearance in human liver microsomes measured per gram of tissue at 2.5 uM. The format is ADME.
The test system of series [2] is Liver microsome. Nature of the series: Intrinsic clearance in Wistar rat liver microsomes measured per gram of tissue at 2.5 uM. Format: ADME. Background: Microsomes from liver hold many membrane-bound enzymes, among them those of drug oxidation.
The target in series [3] is Metabotropic glutamate receptor 5 (Rattus norvegicus) (UniProt P31424). Nature of the series: Displacement of [3H]-M-MPEP from rat cerebrocortical mGluR5 receptor at 1 uM. (Loss of bound radioactivity is the signal in a displacement assay; it reports binding, not function.)
The test system of series [4] is Rattus norvegicus. Kind of series: Anxiolytic effect in ip dosed Wistar male rat assessed as increase in number of accepted shocks by vogel punished drinking test. The format is functional.
The target in series [5] is T1, Metabotropic glutamate receptor 5 (Rattus norvegicus, UniProt P31424). Nature of the series: Negative allosteric modulation of mGlu5 receptor in primary E17 rat embryo neuron assessed as ca2+ level by fluo-4/AM assay.
Series [6] concerns Rattus norvegicus. Kind of series: Anxiolytic effect in po dosed Wistar male rat assessed as increase in number of accepted shocks by vogel punished drinking test. Format: functional. The conditions noted are these: read-out: MED.
For series [7], the target named is T1, Metabotropic glutamate receptor 5. Kind of series: Displacement of [3H]-M-MPEP from rat cerebrocortical mGluR5 receptor.

Each structure is given as a SMILES string.

T1 sequence (P31424 whole entry): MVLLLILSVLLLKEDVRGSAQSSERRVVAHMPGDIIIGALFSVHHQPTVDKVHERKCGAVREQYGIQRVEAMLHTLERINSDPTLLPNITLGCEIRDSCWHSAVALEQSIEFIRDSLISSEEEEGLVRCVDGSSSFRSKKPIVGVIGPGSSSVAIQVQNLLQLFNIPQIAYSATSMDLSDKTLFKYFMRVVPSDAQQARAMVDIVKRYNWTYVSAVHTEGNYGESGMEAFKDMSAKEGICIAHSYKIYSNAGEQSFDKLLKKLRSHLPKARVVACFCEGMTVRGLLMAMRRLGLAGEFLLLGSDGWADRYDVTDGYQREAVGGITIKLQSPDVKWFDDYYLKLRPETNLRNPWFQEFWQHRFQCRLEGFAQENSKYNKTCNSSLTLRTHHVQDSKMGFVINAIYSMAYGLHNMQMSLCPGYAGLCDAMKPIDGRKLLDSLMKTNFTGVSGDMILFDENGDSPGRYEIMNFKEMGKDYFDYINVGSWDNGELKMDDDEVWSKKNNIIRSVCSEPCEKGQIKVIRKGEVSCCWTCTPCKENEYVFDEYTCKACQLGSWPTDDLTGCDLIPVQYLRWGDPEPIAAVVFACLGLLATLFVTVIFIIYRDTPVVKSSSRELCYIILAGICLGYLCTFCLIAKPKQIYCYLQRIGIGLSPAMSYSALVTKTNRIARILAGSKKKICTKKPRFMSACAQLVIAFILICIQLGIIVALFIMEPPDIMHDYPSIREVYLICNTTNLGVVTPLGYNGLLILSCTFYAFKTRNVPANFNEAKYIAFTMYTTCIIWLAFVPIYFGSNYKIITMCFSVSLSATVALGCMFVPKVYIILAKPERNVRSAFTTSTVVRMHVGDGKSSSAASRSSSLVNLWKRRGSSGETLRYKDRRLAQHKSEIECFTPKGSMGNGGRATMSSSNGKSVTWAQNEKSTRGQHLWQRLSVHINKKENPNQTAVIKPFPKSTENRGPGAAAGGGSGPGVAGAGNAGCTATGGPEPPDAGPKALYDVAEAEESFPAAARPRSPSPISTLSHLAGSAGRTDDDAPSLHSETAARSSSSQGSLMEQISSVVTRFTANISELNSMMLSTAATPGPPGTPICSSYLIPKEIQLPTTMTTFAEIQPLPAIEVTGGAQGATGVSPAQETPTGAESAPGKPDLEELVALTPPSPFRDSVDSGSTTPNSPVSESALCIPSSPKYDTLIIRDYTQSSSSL
Chain of Metabotropic glutamate receptor 5 (Rattus norvegicus) (P31424 21-1203 limits assumed): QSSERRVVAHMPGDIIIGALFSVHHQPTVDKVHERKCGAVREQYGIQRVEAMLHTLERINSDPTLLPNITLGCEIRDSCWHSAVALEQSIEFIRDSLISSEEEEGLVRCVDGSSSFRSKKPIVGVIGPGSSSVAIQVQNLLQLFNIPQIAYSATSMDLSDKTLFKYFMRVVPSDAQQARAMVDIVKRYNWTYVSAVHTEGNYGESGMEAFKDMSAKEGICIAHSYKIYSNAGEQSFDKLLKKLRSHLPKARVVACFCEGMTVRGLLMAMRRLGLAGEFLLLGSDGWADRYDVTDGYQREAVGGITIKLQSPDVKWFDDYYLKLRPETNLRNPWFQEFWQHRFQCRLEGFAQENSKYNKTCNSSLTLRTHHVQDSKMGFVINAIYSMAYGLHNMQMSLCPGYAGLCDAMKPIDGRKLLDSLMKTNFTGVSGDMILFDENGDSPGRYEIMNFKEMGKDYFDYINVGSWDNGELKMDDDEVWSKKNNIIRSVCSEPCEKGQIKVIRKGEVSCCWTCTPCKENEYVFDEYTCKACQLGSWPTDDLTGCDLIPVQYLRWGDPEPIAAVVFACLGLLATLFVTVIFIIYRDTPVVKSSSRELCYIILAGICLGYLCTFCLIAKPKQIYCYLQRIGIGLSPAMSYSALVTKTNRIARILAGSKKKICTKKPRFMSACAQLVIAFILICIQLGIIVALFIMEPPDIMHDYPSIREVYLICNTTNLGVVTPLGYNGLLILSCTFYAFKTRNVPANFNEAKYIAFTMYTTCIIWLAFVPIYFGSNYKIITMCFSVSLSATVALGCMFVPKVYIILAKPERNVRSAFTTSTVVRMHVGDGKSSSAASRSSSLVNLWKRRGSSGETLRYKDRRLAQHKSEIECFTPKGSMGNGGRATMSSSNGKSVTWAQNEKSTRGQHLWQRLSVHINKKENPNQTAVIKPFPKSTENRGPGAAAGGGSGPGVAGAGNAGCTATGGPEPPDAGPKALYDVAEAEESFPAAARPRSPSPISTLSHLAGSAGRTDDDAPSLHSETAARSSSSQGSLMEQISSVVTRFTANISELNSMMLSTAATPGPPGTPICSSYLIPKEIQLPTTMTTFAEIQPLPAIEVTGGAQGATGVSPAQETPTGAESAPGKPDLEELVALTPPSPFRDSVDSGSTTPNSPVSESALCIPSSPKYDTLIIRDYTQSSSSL

With `COc1ccnc2sc(S(=O)(=O)c3ccc(Cl)cc3)c(-c3ccc(Cl)cc3)c12`, the CLH in the series with Liver microsome [1] was determined as 1 mL/min/g; with Liver microsome [2], 6.5 mL/min/g. Also, the inhibition (usually the drop in the measured response relative to a control, in per cent) in series [3] came to 20%.

Consider `CCCCS(=O)(=O)c1sc2ncccc2c1-c1ccc(Cl)cc1`, for which the inhibition in series [3] is 30%.

For the compound `CS(=O)(=O)c1ccc(-c2c(S(=O)(=O)c3ccc(Cl)cc3)sc3ncccc23)cc1`, the CLH with Liver microsome [1] came out at 0.4 mL/min/g; in the series on Liver microsome [2], 2.4 mL/min/g. In addition, the inhibition in series [3] worked out at 13%.

Take `Cc1nc(C)c(S(=O)(=O)c2sc3ncccc3c2-c2ccc(Cl)cc2)s1`: the inhibition in series [3] came out at 35%.

`N#Cc1ccc(-c2c(S(=O)(=O)c3cccc(C#N)c3)sc3ncccc23)cc1`: the CLH with Liver microsome [1] came out at 0.1 mL/min/g; with Liver microsome [2], 2.9 mL/min/g. In series [3], this compound returned an inhibition of 62%.

On to `O=S(=O)(c1ccc(Cl)cc1)c1sc2ncccc2c1Oc1ccc(Cl)cc1`, for which the CLH stood at 3 mL/min/g in the series on Liver microsome [1] and 9.3 mL/min/g with Liver microsome [2]. In series [3], this compound returned an inhibition of 11%.

Regarding `O=S(=O)(c1ccc(Cl)cc1)c1sc2nccc(O)c2c1-c1ccc(Cl)cc1`, the CLH in the series with Liver microsome [1] stood at 0.01 mL/min/g; with Liver microsome [2], 0.7 mL/min/g. In series [3], the inhibition is 34%.

`Cc1cc(C)c(S(=O)(=O)c2sc3ncccc3c2-c2ccc(Cl)cc2)c(C)c1` displayed an inhibition in series [3] of 0%.

`Cc1noc(C)c1S(=O)(=O)c1sc2ncccc2c1-c1ccc(Cl)cc1` returned an inhibition in series [3] of 0%.

`N#Cc1cccc(S(=O)(=O)c2sc3nc(Cl)ccc3c2-c2ccc(Cl)cc2)c1`: the CLH with Liver microsome [1] stood at 1.4 mL/min/g; with Liver microsome [2], 3.6 mL/min/g. In addition, in series [3], the inhibition came to 19%.

`O=S(=O)(NCc1ccc(Cl)cc1)c1sc2ncccc2c1-c1ccc(Cl)cc1` had an inhibition in series [3] of 30%.

In turn, `CC1CCN(S(=O)(=O)c2sc3ncccc3c2-c2ccc(Cl)cc2)CC1` returned an inhibition in series [3] of 39%.

As to `O=S(=O)(c1ccc(Cl)cc1)c1sc2ncccc2c1-c1ccc(Cl)cc1`, the CLH with Liver microsome [1] is 1.6 mL/min/g; with Liver microsome [2], 4.2 mL/min/g. Besides, the Activity result in the series with Rattus norvegicus [4] is “Dose-dependent effect”. Also, the minimal effective dose with Rattus norvegicus [4] (read-out: MED) was determined as 40 mg/kg.

`O=S(=O)(c1cccs1)c1sc2ncccc2c1-c1ccc(Cl)cc1` had an inhibition in series [3] of 34%.

In series [3], `O=S(=O)(c1sc2ncccc2c1-c1ccc(Cl)cc1)C1CCCCC1` returned an inhibition of 14%.

Regarding `N#Cc1cc(F)cc(S(=O)(=O)c2sc3ncc(N)cc3c2-c2cccc(F)c2)c1`, the half-maximal inhibitory concentration (IC50) (in general, the concentration at which inhibition is half-maximal) in series [5] amounted to 5.5 nM. The CLH turned out to be 0.9 mL/min/g in the series on Liver microsome [1] and 1.2 mL/min/g in the series with Liver microsome [2]. For the same compound, in the series on Rattus norvegicus [6], the minimal effective dose is 3 mg/kg.

For `CN(C)c1ccc2c(-c3ccc(Cl)cc3)c(S(=O)(=O)c3ccc(Cl)cc3)sc2n1`, the results for the CLH with Liver microsome [1] and in the series on Liver microsome [2] were 1.4 mL/min/g and 3.7 mL/min/g, respectively. The same compound gave an inhibition in series [3] of 2%.

In series [3], `CC(=O)Nc1ccc(S(=O)(=O)c2sc3ncccc3c2-c2ccc(Cl)cc2)cc1` had an inhibition of 6%.

As for `COc1ccc2c(-c3ccc(Cl)cc3)c(S(=O)(=O)c3cccc(C#N)c3)sc2n1`, the CLH in the series on Liver microsome [1] came out at 0.3 mL/min/g; with Liver microsome [2] it was 4.2 mL/min/g. The same compound had an inhibition in series [3] of 50%.

As for `Nc1cnc2sc(S(=O)(=O)c3ccc(Cl)cc3)c(-c3cccc(F)c3)c2c1`, the affinity in series [7] corresponds to a Ki of 37 nM. The half-maximal inhibitory concentration (IC50) in series [5] was found to be 127 nM. The CLH in the series on Liver microsome [1] worked out at 1.7 mL/min/g; in the series on Liver microsome [2] it was 1.8 mL/min/g.

`O=S(=O)(c1ccccc1Cl)c1sc2ncccc2c1-c1ccc(Cl)cc1` had an inhibition in series [3] of 32%.

In the case of `N#Cc1cc(F)cc(S(=O)(=O)c2sc3ncccc3c2-c2cccc(Cl)c2)c1`, the Ki (as a rule, a dissociation constant, usually derived from enzyme kinetics or from competition with a known ligand) in series [7] amounted to 8.9 nM. Also, the IC50 in series [5] turned out to be 11 nM. The CLH with Liver microsome [1] amounted to 2.6 mL/min/g; in the series on Liver microsome [2], 2 mL/min/g.

For `O=S(=O)(Nc1ccc(Cl)cc1)c1sc2ncccc2c1-c1ccc(Cl)cc1`, the inhibition in series [3] was 20%.

On to `N#Cc1cc(F)cc(S(=O)(=O)c2sc3ncccc3c2-c2cnccc2Cl)c1`, for which the affinity in series [7], expressed as Ki, was 9.3 nM. For the same compound, the IC50 in series [5] is 34 nM. Moreover, the CLH was 1.1 mL/min/g in the series on Liver microsome [1] and 1 mL/min/g in the series on Liver microsome [2].

Compound `N#Cc1cc(F)cc(S(=O)(=O)c2sc3ncc(N)cc3c2-c2ccc(F)c(F)c2)c1` had an inhibition constant Ki in series [7] of 2.7 nM. Also, the 50% inhibitory concentration (IC50) in series [5] was 9 nM. In addition, the results for the CLH in the series with Liver microsome [1] and in the series with Liver microsome [2] were 0.9 mL/min/g and 1 mL/min/g, respectively.

`O=S(=O)(Cc1ccccc1)c1sc2ncccc2c1-c1ccc(Cl)cc1` came in with an inhibition in series [3] of 25%.

The compound `N#Cc1cc(F)cc(S(=O)(=O)c2sc3ncc(N)cc3c2-c2ccccc2F)c1` registered a Ki in series [7] of 1.5 nM. Further, in series [5], the concentration for half-maximal inhibition (IC50) amounted to 1.6 nM. Moreover, the results for the CLH in the series on Liver microsome [1] and in the series on Liver microsome [2] were 1.1 mL/min/g and 2.5 mL/min/g, respectively.

For the compound `N#Cc1cccc(S(=O)(=O)c2sc3ncccc3c2-c2ccc(Cl)cc2)c1`, the Ki in series [7] stood at 4.1 nM. Moreover, the IC50 in series [5] came out at 30 nM. For the same compound, the figures for the CLH in the series on Liver microsome [1] and in the series on Liver microsome [2] were 2.4 mL/min/g and 12.8 mL/min/g, respectively.

Source of the values: ChEMBL document CHEMBL3400086, “Thieno[2,3-b]pyridines as negative allosteric modulators of metabotropic GluR5 receptors: Lead optimization” (Bioorg Med Chem Lett, 2015).
